“Also recorded” adds a separate entry of the source. Where two headings read alike, the source gives them in different places.
Assays:
[1] = tested on: intrahepatic CCA tumors from BDE-Neu-CL24 cells; test: rat intrahepatic syngeneic CCA metastasis model; format: in vivo; conditions: for CCA metastatic spread to the lung (metastatic nodules): rat, 10 mg/kg oral capsule daily for 18 days, versus control capsule, p=0.041, 10 mg/kg
Experimental: Rats received 10 mg/kg (body weight) of the ASPH inhibitor daily for 18 days and sacrificed at day 21 post-surgery
The statistical analysis was performed using the Mann-Whitney U test. *, p<0.05 versus control.
The compound 55 (25 mg/kg) was given by i.p injection, and 10 mg/kg of compound 14c via i.p. injection 3 times per week. N=8-10 in each group.
(§1) The intrahepatic CCA metastatic models weremetastasis model was established with BDE-Neu-CL24 cells. Rats were anesthetized with isoflurane, the abdomen was opened, and the liver inoculated with 3×10^6 BDE-Neu-CL24 cells. The bile duct was then ligated following administration of 0.03 mg/kg of buprenorphine prior to surgery, and four hours after surgery, and the following morning for analgesia as needed. The rats were monitored daily and evaluated for weight change, body condition, and signs of ascites. The oral formulated compound 14c were prepared in capsules at a dose of 10 mg/kg and administered with an oral syringe. The rats were euthanized 18 days post-surgery with Isoflurane and cervical dislocation. Tumors were dissected away from the adjacent liver and weighed. All lung tissues were immersed in Bouin's fixative solution and the metastatic nodules on the surface of the lungs were counted.
Statistical analyses of two groups were done by Student's t-test unless otherwise stated. Equality of variance was examined using F-test. Mann-Whitney U test was used to assess the significance between the two groups with respect to the numbers of metastatic nodules in the rat lung by using the software “R”.
(§2) To evaluate whether compound 14c suppresses CCA metastasis in vivo, we performed experiments in a rat intrahepatic syngeneic CCA model by ligating the bile duct and inoculating rat BDE-neu-CL24 cells into the liver. We first determined that compound 14c inhibited BDE-neu-CL24 cells in vitro (FIG. 4A). The intrahepatic rat model was established and the rats challenged with a control capsule or a capsule containing compound 14c (10 mg/kg, FIG. 4B) orally and daily for 18 days, and animals were sacrificed on day 21 (FIG. 4C). The body weights were measured as a gross indicator of drug toxicity and were not affected compared to vehicle control (FIG. 7). The metastatic spread to the lung surface was determined (FIG. 4D).

MMP14 = test: immunohistochemistry of primary intrahepatic tumor, MMP14; format: in vivo; conditions: rat, 10 mg/kg oral daily
Experimental: (§3) The immunohistochemistry assay was performed as known in the art. Tissue slides were de-paraffined, re-hydrated, and then subjected to antigen-retrieval using the antigen unmasking solution (Vector Inc., H3300). The endogenous peroxidase activity was quenched with 3% H2O2 prepared in methanol. Tissues slides were further blocked with a 5% milk and BSA solution prepared in 1×PBST for 1 hour. The slides were incubated with ASPH, MMP2, and MMP14 antibodies prepared in with 3% BSA in PBS) overnight at 4° C. overnight. The slides were washed with 0.05% TBST three times and then incubated with 1:200 dilution of biotinylated secondary antibody (Vector Laboratories) and the ABC solution (Vector Laboratories) at 20° C. The slides were incubated with DAB substrate to detect positive staining. […] Images were taken using a Nikon microscope and analyzed with Image Pro Plus.
as §2, with “The intrahepatic rat model was established and the rats challenged with a control capsule or a capsule containing compound 14c (10 mg/kg, FIG. 4B) orally and daily for 18 days, and animals were sacrificed on day 21 (FIG. 4C).” left out

BDE-neu-CL24 cells = test: cell migration assay, rat BDE-neu CL24 CCA cells; format: cell-based; conditions: 10 μM, versus DMSO
Experimental: (§4) Human cholangiocarcinoma cell lines, HuCCT1, RBE, and SSP25 were purchased from the RIKEN cell line bank. They were cultured in RPMI-1640 medium supplemented with 10% (v/v) fetal bovine serum, 2 mM of L-glutamine, and penicillin/streptomycin. A BDE-Neu cell line and BDE-Neu CL24 were cultured in Dulbecco's modified Eagle's medium supplemented with 10% (v/v) fetal bovine serum, 2 mM of L-glutamine, and penicillin/streptomycin. Plasmids pLKO.1-shRNA-luciferase (shLuc) and pLKO.1-shRNA-ASPH (shASPH) were purchased from Sigma-Aldrich (St. Louis, Mo.).
(§5) The cell migration assay was performed using transwell chambers (pore size: 8 μm, Corning 3422) coated with Matrigel® (Corning 354480). The cell invasion assay was performed by using transwell chambers coated with Matrigel® (Corning 354480) as previously described. In brief, 10^5 cells in 200 μl of serum-free medium were plated in the top chamber and 600 μl of culture medium containing 10% fetal bovine serum was preparedapplied in the lower chamber to stimulate cell for migration. Cells were incubated for 24 hours, fixed with methanol, stained with 10% Giemsa solution, and counted using ImageJ software (National Institute of Health, USA). The results of invasion assay were analyzed as described in the migration assay.

HuCCT1 CCA cells [2] = test: cell invasion assay, matrix-coated Boyden chamber transwell, HuCCT1; format: cell-based; conditions: Homo sapiens, HuCCT-1, 10 μM compound 14c, versus DMSO, read-out: inhibition of cell invasion capacity
Experimental: as §4, §5

water solubility = format: physicochemical
RBE CCA cells [3] = test: 24-hour transwell cell migration assay, RBE; format: cell-based, human
Experimental: (§6) We used 5×10^4 HuCCT1 and 1×10^5 RBE cells in the migration assay.
as §4, §5

RBE CCA cells [4] = test: cell invasion assay, matrix-coated Boyden chamber transwell, RBE; format: cell-based; conditions: Homo sapiens, 10 μM compound 14c, versus DMSO, read-out: inhibition of cell invasion capacity
Experimental: as §4, §5

HuCCT1 CCA cells [5] = test: 24-hour transwell cell migration assay, HuCCT1; format: cell-based, human; conditions: 10 μM compound 14c, versus DMSO
Experimental: as §6, §4, §5

ASPH = target: T1, ASPH (Homo sapiens, UniProt Q12797); test: ASPH enzymatic (catalytic) activity; format: biochemical
T1 sequence (Q12797 1-758): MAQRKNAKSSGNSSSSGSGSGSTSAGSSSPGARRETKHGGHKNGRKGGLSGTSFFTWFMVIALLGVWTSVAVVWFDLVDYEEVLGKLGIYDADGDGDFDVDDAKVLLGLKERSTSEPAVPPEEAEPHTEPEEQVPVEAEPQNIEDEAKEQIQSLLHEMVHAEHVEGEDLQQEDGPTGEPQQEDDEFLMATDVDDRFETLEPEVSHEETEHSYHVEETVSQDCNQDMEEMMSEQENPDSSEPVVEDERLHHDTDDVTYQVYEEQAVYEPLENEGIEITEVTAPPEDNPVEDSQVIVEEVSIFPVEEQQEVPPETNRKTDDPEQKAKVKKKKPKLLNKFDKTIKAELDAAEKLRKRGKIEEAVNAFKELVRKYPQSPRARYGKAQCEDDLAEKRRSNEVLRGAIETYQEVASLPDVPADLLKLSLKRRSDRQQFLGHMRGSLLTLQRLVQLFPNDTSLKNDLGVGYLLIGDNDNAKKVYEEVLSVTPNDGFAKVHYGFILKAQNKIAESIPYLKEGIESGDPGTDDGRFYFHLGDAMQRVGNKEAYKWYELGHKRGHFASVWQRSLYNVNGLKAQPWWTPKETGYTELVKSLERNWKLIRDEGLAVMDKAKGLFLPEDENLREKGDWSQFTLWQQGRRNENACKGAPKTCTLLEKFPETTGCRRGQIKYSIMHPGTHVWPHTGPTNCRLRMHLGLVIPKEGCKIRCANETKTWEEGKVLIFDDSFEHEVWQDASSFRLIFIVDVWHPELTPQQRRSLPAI
Excerpt: FIGS. 5A-5B show a scheme for measuring ASPH catalytic activity.

MMP2 = test: immunohistochemistry of primary intrahepatic tumor, MMP2; format: in vivo; conditions: rat, 10 mg/kg oral daily
Experimental: as §3
as §2, with “The intrahepatic rat model was established and the rats challenged with a control capsule or a capsule containing compound 14c (10 mg/kg, FIG. 4B) orally and daily for 18 days, and animals were sacrificed on day 21 (FIG. 4C).” left out

[6] = body weights of experimental rats as gross indicator of drug toxicity; format: in vivo; conditions: rat, compound 14c 10 mg/kg, measured at the indicated experimental time points, n=8-10
Experimental: There was no difference between the control and experimental groups.
as §1, with “The rats were euthanized 18 days post-surgery with Isoflurane and cervical dislocation. Tumors were dissected away from the adjacent liver and weighed.” left out
as §2, with “The intrahepatic rat model was established and the rats challenged with a control capsule or a capsule containing compound 14c (10 mg/kg, FIG. 4B) orally and daily for 18 days, and animals were sacrificed on day 21 (FIG. 4C).” left out

[7] = listed as third generation ASPH inhibitor

water solubility compared to previous generations of ASPH SMIs (water solubility)	water solubility compared to previous generations of ASPH SMIs (water solubility; [7])	inhibitory effects on ASPH (enzymatic) activity compared to previous generations of ASPH SMIs (ASPH)	inhibitory effects on ASPH (enzymatic) activity compared to previous generations of ASPH SMIs (ASPH; [7])	SMILES	effects on CCA progression as compared to compound 55 (FIG. 6A, weight of CCA tumors) ([1]; rat CCA model, compound 14c 10 mg/kg i.p. 3 times per week versus compound 55 25 mg/kg i.p.)	CCA metastatic spread to the lung (metastatic nodules) [1]	CCA metastatic spread to the lung (metastatic nodules) [1, 7]	MMP14 protein expression in primary intrahepatic tumor (MMP14)	inhibition of BDE-neu-CL24 cells in vitro (cell migration, FIG. 4A) (BDE-neu-CL24 cells)	inhibition at 10 µM (HuCCT1 CCA cells [2]) [%]	reduction of cell migration (RBE CCA cells [3]; 10 μM compound 14c, 24-hour transwell, versus DMSO) [%]	reduction of RBE CCA cell migration (RBE CCA cells [3]; comparison of ASPH inhibitor generations, concentration not stated)	inhibition at 10 µM (RBE CCA cells [4]) [%]	reduction of cell migration (HuCCT1 CCA cells [5]) [%]	MMP2 protein expression in primary intrahepatic tumor (MMP2)	body weights compared to vehicle control [6]	anti-tumor effects on metastatic spread to the lung ([1]; rat model, 25 mg/kg, daily)	anti-tumor effects on primary tumor growth ([1]; rat model, 25 mg/kg, daily)
improved water solubility	more water soluble	improved	increased potency	COC(=O)c1ccc(C2OC(N)=C(OS(=O)(=O)Cc3ccccc3)C2=O)cc1 (stereo not drawn) [compound 14c]	improved effects	substantially decreased	suppressed	significantly down-regulated	inhibited	60	70	approximately 70%	83	50	significantly down-regulated	not affected; also recorded: no difference	–	–
–	–	–	–	NC1=C(OS(=O)(=O)Cc2ccccc2)C(=O)C(c2ccc(C(F)(F)F)cc2)O1 (stereo not drawn) [compound 55, 2-(4-trifluoromethylphenyl)-4-[[phenylmethylsulfonyl]oxy]-5-amino-3(2H)-furanone]	–	–	–	–	–	–	–	–	–	–	–	–	did not achieve satisfactory anti-tumor effects	did not achieve satisfactory anti-tumor effects
